In patent US20110143960A1, “3D-MODELS FOR HIGH-THROUGHPUT SCREENING DRUG DISCOVERY AND DEVELOPMENT” (priority 2009, published 2011):
“Also recorded” adds a separate entry of the source. Where two headings read alike, the source gives them in different places.

Key:
MDA-MB-231 cells = tested on: MDA-MB-231 cells
Experimental: (§1) Cell lines were cultured as monolayers in 96-well microplates and treated with U0126, the specific inhibitor of mitogen-activated protein kinase kinase (MEK1).

[1] = tested on: EGF-treated PMC42-LA cells
Experimental: as §1

[2] = tested on: vimentin in MDA-MB-231 spheroids; assay: Immunofluorescent vimentin staining of whole and sectioned spheroids (confocal); type: cell-based; settings: whole spheroid, outer surface / peripheral layer; U0126 10 μM 72 h
Experimental: Confocal 3D imaging emphasizes a surface edge of MDA-MB-231 spheroids untreated or treated with (10 μM) U0126 for 72 hours.
Spheroids were fixed with 50 μL of 3.7% formaldehyde for 10 min at room temperature. They were then washed once with PBS and 50 μL of 0.2% Triton X-100 in PBS (v/v) were added for 10 min at room temperature to permeate cells. Next they were blocked with 50 μL of cell culture medium (10% FBS) for 1 h at room temperature. Blocking medium was then aspirated and sphroids were treated with mouse anti-vimentin at 1:100 in TBST containing 20% cell culture medium (v/v) with shaking at 4° C. overnight. They were then washed (3×TBST) and stained with FITC green fluorescent conjugated goat anti-mouse secondary antibody at 1:1,000 and with DAPI (4′,6-diamidino-2-phenylindole) at 1:1,000 in TBST containing 20% cell culture medium (v/v) for 1 h at room temperature and washed with TBST 4×. After fixing with formaldehyde, some spheroids were sectioned using a Leica CM 1950 cryostat (Leica Microsystems; Germany) with thickness of 10 μm. Spheroid sections were washed with PBS and stained as described above. Spheroid sections on slides were covered with mounting medium and cover slips. Imaging of whole spheroids was done with an UltraVIEW® VoX 3D confocal microscope (Perkin Elmer) using a 20× objective. Spheroid sections were imaged using a Nikon D-Eclipse Cl confocal microscope system (Nikon Instruments Inc; Melville, N.Y.).
Vimentin expression in VimPro-Fluc-MDA-MB-231 spheroids was further assessed by immunofluorescent staining of whole spheroids treated with U0126.

MDA-MB-231 spheroids [3] = assay: Modified Boyden chamber cell invasion assay of cells dissociated from spheroids; type: cell-based; settings: control modulators, 72 h treatment, 24 h invasion, FIG. 6
Experimental: Spheroids were treated as in the primary assay. Following treatment, each sample group was disassociated into single cell suspensions and seeded into invasion chambers followed by a 24 h incubation period. VimPro-Fluc-MDA-MB-231 spheroids were treated with control EMT modulators as described using 15 spheroids per sample group. The spheroids for each sample group were pooled into 1.5 ml, micro tubes and collected by centrifugation at 10,000 rpm for 10 min at room temperature.
Each sample group was then treated with 200 μL of spheroid dissociation solution (0.25% trypsin-EDTA) and incubated at 37° C. for 30 min. Single cell suspensions of each group in RPMI-1640 medium containing 0.1% BSA were seeded at 35,000 cells/chamber (50 μL) into the top chambers of a 96-well invasion plate (BD Biosciences; Bedford, Mass.) previously coated with 50 μL of […]™ (40 μg/mL protein in RPMI-1640 medium). Chemoattractant (10%
FBS in RPMI-1640 medium, 150 μL) was added to each bottom chamber and the plate was incubated (37° C., 5% CO2) for 24 h. Following incubation the insert was removed and the medium aspirated from both top and bottom chambers. […] Each side of the membrane insert was washed 2× by adding 200 μL PBS-CMF (Ca/Mg free) to the bottom chamber, replacing the insert and adding 50 μL PBS-CMF to the top chamber. The PBS-CMF was removed and the invading cells were fixed with 200 μL of 4% paraformaldahyde in the bottom chambers at 37° C. for 15 min. The insert was washed 2× with PBS-CMF as described above. The invading cells were subsequently stained with 200 μL of DAPI (3 μg/mL) in PBS-CMF for 30 min at room temperature and washed 4×, as described above, in 15 min intervals. Invading cells were quantified using five random fields per filter insert in triplicate at 20× magnification using a fluorescent microscope equipped with metamorph image analysis and quantification software (Molecular Devices; Downingtown, Pa.).

[4] = tested on: VimPro-Fluc-MDA-MB-231 cells; type: cell-based; settings: VimPro-Fluc-MDA-MB-231 monolayer, 72 h
Experimental: (§2) A 2D-screen was conducted with small molecule antitumor agents, growth factors or antibodies (FIG. 2B). All cells were cultured in 100 mm tissue culture dishes in RPMI-1640 supplemented with 10% FBS and maintained in a 5% CO2 incubator at 37° C. VimPro-Fluc-MDA-MB-231 and VimPro-Fluc-PMC42-LA were seeded at 5,000 cells/well into 96-well white plates and incubated overnight for 16 h. VimPro-Fluc-PMC42-LA and VimPro-Fluc-MDA-MB-231 cells were treated for 72 h. The treatment medium was replaced with 50 μL fresh medium, then 50 μL of One-Glo Luciferase reagent and incubated at room temperature for 10 min. Luminescence was recorded with an integration time of 1 sec/well using a luminescence microplate reader.

[5] = tested on: VimPro-Fluc-PMC42-LA cells; type: cell-based; settings: VimPro-Fluc-PMC42-LA monolayer, 10 ng/mL EGF, 72 h
Experimental: as §2

[6] = tested on: VimPro-Fluc-MDA-MB-231 spheroids; assay: Live 3D-spheroid vimentin expression assay (VimPro-Fluc, DMNPE-caged luciferin); type: cell-based; settings: read-out: IC50 vimentin expression, dose response
Experimental: Uniform single-spheroids of MDA-MB-231 and VimPro-Fluc-MDA-MB-231 breast carcinoma cells were cultured in 96-well flat bottom plates coated with 50 μL of a 1.5% agarose (weight/volume) solution in serum free RPMI-1640 (no phenol red) medium (freshly autoclaved at 121° C. for 15 min). During the coating process the agarose/RPMI-1640 solution was maintained at >60° C. followed by cooling and setting at room temperature for 40 min. Cells were plated at a density of 10,000 cells/well in 50 μL of RPMI-1640 (10% FBS, no phenol red) and centrifuged at 1,000 rpm for 15 min to induce cell aggregation. […]
VimPro-Fluc-MDA-MB-231 spheroids were cultured in 96-well optical bottom white plates and treated as described above. On day 8, after 72 h treatment with control EMT modulators, live spheroid vimentin expression was measured by adding 10 μL (final 12.5 μM) of DMNPE-caged luciferin to each well and incubating at 37° C., 5% CO2 for 2 h.
Uniform single spheroids were cultured in 96-well optical bottom white plates as described above and treated on day 5. […] After 72 h, vimentin expression was measured by adding 10 μL (final 12.5 μM) of DMNPE-caged luciferin to each well and incubated for 2 h (37° C., 5% CO2). Luminescence was recorded with an integration time of 1 second/well (FIG. 9A-D).

MDA-MB-231 spheroids [7] = assay: Spheroid viability, APH assay multiplexed after vimentin readout; type: cell-based; settings: for spheroid death (control of APH assay): 10% Triton X-100, 2 h prior to APH analysis
Experimental: Cell Viability To support the primary assay hit validation, two cell viability assays have been developed: the acid phosphatase assay (APH) and the cell-titer-glow (Promega®). Both assays give robust reproducible results in both 2D and 3D cell culture. We can also multiplex these assays using live VimPro-Fluc stable 3D-spheroids (FIG. 5). On day 8, vimentin expression was measured (luminescence as RLU/s), using a live cell permeable luciferin reagent, followed by multiplexing with the APH assay (OD405). […] Thus, downregulation of VimPro-Fluc activity by the control modulators is not due to spheroid death.
Uniform single spheroids were cultured in 96-well optical bottom white plates as described above and treated on day 5. To avoid edge effects the outer wells were unused and filled with sterilized water. 15 μL of controls and marine natural products were added to each well at final concentrations described above. After 72 h, vimentin expression was measured by adding 10 μL (final 12.5 μM) of DMNPE-caged luciferin to each well and incubated for 2 h (37° C., 5% CO2). Luminescence was recorded with an integration time of 1 second/well (FIG. 9A-D). Directly following the primary assay measuring vimentin expression, spheroid viability was multiplexed using the APH assay. Hits were confirmed using the cell invasion assay (FIG. 9E).

## N#CC(=C(/N)Sc1ccccc1N)/C(C#N)=C(\N)Sc1ccccc1N [U0126]
MDA-MB-231 cells
  invasive potential: significantly diminished
[1]
  invasive potential: significantly diminished
[2]
  vimentin protein expression by immunofluorescence: overall vimentin downregulation; also recorded: Significant downregulation of vimentin protein expression; also recorded: repression of Vimentin expression
MDA-MB-231 spheroids [3]
  inhibition of invasive potential vs untreated spheroids: about 90%
  invasive potential of MDA-MB-231 spheroids (in words): significant inhibition
[4]
  vimentin expression: significant downregulation of vimentin expression
[5]
  EGF-induced EMT (vimentin upregulation): significantly inhibited
[6]
  IC50: 2.5 µM

## CNC(=O)c1ccccc1Sc1ccc2c(/C=C/c3ccccn3)n[nH]c2c1 [Axitinib]
[6]; VimPro-Fluc spheroids, FIG. 8B
  IC50: 0.25 µM

## COc1c(OC)c2c(c(CCN(C)C)c1SC)Sc1c(CCN(C)C)c(SC)c(OC)c(OC)c1S2 [lissoclinotoxin E]
MDA-MB-231 spheroids [7]; marine natural product hits, 10 μM, 72 h, APH assay
  spheroid viability vs untreated spheroids on day 5: exception; also recorded: statistically significant decrease in spheroid viability

## CO[C@@H]1[C@H](N(C)C(=O)c2ccccc2)C[C@H]2O[C@]1(C)n1c3ccccc3c3c4c(c5c6ccccc6n2c5c31)C(=O)NC4 [PKC412]
MDA-MB-231 spheroids [3]
  invasive potential of MDA-MB-231 spheroids (in words): significant inhibition

## COc1cc2ncnc(Nc3cccc(Cl)c3)c2cc1OC [AG1478]
[4]
  vimentin expression: no statistically significant effect
[5]
  EGF-induced EMT (vimentin upregulation): significantly inhibited

## Triton X-100
MDA-MB-231 spheroids [7]
  spheroid death (control of APH assay): significantly induces spheroid death
MDA-MB-231 spheroids [7]; listed as Triton-X-100
  spheroid death (control of APH assay): significantly induced spheroid death

## C[C@@H](Oc1cc(-c2cnn(C3CCNCC3)c2)cnc1N)c1c(Cl)ccc(F)c1Cl [PF2341066, PF-2341066]
MDA-MB-231 spheroids [3]
  inhibition of invasive potential vs untreated spheroids: about 90%
  invasive potential of MDA-MB-231 spheroids (in words): significant inhibition
